Patent US20040043914A1, “Sustained release antimicrobial composition including a partially halogenated hydantoin and a colorant” (LONZA INC., priority 2002, published 2004)

Experiment: Total chlorine yield upon dissolution
Type: physicochemical
From the text: The partially halogenated hydantoin is preferably monochloro-5,5-dimethyl hydantoin (MCDMH). MCDMH yields about 43% of its weight in total chlorine upon dissolution.

monochloro-5,5-dimethyl hydantoin [MCDMH]
total chlorine yielded upon dissolution: about 43 % of its weight
